Measured values published in US20100016324A1, “PHARMACEUTICAL COMPOSITIONS FOR THE TREATMENT OF CELLULITE” (MENARINI RICERCHE S.P.A., priority 2004, published 2010).

Key:
[1] = system: human adipocytes; assay: in vitro lipolysis test: glycerol release stimulated by 10 nM isoprenalin in cultured human adipocytes; assay type: cell-based; details: Adipocyte, 15 min preincubation, 4 h, read-out: % INCREASE IN LIPOLYSIS
Experimental: Determination of extracellular glycerol produced by lipolysis of adipocyte triglycerides.
The in vitro lipolysis test was conducted on human adipocytes obtained from primary cultures of their progenitors, preadipocytes (Promocell), by inducing differentiation. The actual adipocyte differentiation was established by assaying glycerol-3-phosphate dehydrogenase (an enzyme expressed in mature adipocytes, but not in preadipocytes) and the lipids accumulated at intracellular level, with Oil Red O (Sigma).
The PDE3 inhibitors were preincubated with the adipocytes at various concentrations for 15 min; 10 nM of isoprenalin, able to induce weak stimulation of lipolysis (25% of the maximum response obtained with isoprenalin 1 μM), was then added. After 4 h the culture medium was removed, and […].
Lipolytic activity was evaluated by determining the glycerol released into the extracellular medium following triglyceride hydrolysis.
Effect of Some PDE Inhibitors on Glycerol Release, Stimulated by 10 nM Isoprenalin, in Cultured Human Adipocytes

[2] = Determination of the compound in the blood at the end of the observation period; assay type: in vivo, human; details: after topical cream with 1% Milrinone twice a day for 2 months
Experimental: 10 healthy female adults presenting evident cellulite in the upper outer part of the thighs were examined.
Each patient served as her own control for evaluation of efficacy and safety. The cream containing the active constituent (1% Milrinone) was spread on the outer part of one thigh, while the base cream (without the active constituent) was spread in the same area of the other thigh, in a randomised manner.
Treatment with approx. 2-3 cm of cream, massaged in for 2-3 minutes until absorbed, was repeated twice a day every day for 2 months.

[3] = system: cellulite in the upper outer part of the thighs; assay: In vivo test: thigh circumference in healthy female adults with cellulite, cream vs base cream; design: species or system human; details: cream with 1% Milrinone, topical, twice a day for 2 months, 10 healthy female adults
Experimental: 10 healthy female adults presenting evident cellulite in the upper outer part of the thighs were examined. Each patient served as her own control for evaluation of efficacy and safety. […] Treatment with approx. 2-3 cm of cream, massaged in for 2-3 minutes until absorbed, was repeated twice a day every day for 2 months. […] The circumference of each thigh was measured periodically, two-thirds of the way between the knee and the greater trochanter, until the end of treatment. The reduction in circumference of the pharmacologically treated thigh compared with the untreated thigh was 2.9±0.7 cm, with a range of 1.3-4.7 cm.

Q: Which activation at 10 µM [1] does the source give for Nc1cc(-c2ccncc2)c[nH]c1=O [Amrinone] here?
A: 20 ± 6%

Q: For O=C1CN2Cc3c(ccc(Cl)c3Cl)N=C2N1 [Anagrelide, anagrelide], which activation at 10 µM [1] is on record?
A: 114 ± 11%

Q: For Cn1c(=O)c2c(ncn2C)n(C)c1=O [Caffeine, caffeine], which activation at 10 µM [1] is on record?
A: 10 ± 5%

Q: Which activation at 10 µM [1] does the source give for O=C1CCc2cc(OCCCCc3nnnn3C3CCCCC3)ccc2N1 [Cilostazol, cilostazol] here?
A: 31 ± 9%

Q: For CSc1ccc(C(=O)c2[nH]c(=O)[nH]c2C)cc1 [Enoximone, enoximone], which activation at 10 µM [1] is on record?
A: 65 ± 4%

Q: For Cc1[nH]c(=O)c(C#N)cc1-c1ccncc1 [Milrinone, milrinone], which activation at 10 µM [1] is on record?
A: 151 ± 16%

Q: What about the “presence of the compound in the blood” value [2] of the same compound?
A: did not detect the presence of the compound

Q: What about the “reduction in circumference of the pharmacologically treated thigh compared with the untreated thigh” value ([3]; mean ± spread) of the same compound?
A: 2.9±0.7 cm

Q: What about the “reduction in circumference of the pharmacologically treated thigh compared with the untreated thigh, range” value ([3]; range across patients) of the same compound?
A: 1.3-4.7 cm

Q: Which activation at 10 µM [1] does the source give for COc1ccc(-c2nc3ccc(C4=NNC(=O)CC4C)cc3[nH]2)cc1 (stereo not drawn) [Pimobendan, pimobendan] here?
A: 159 ± 22%

Q: With Cn1c(=O)c2[nH]cnc2n(C)c1=O [Theophylline, theophylline] as the compound, how does the activation at 10 µM [1] read?
A: 5 ± 4%

Q: Which activation at 10 µM [1] does the source give for COc1cc2c(cc1OC)-c1c/c(=N\c3c(C)cc(C)cc3C)n(C)c(=O)n1CC2 [Trequinsin, trequinsin] here?
A: 276 ± 59%
